The source of these data is ChEMBL document CHEMBL1914379, “Challenges of drug discovery in novel target space. The discovery and evaluation of PF-3893787: a novel histamine H4 receptor antagonist” (Bioorg Med Chem Lett, 2011).

The nature of data set [1]: Metabolic stability in human liver microsomes. The format is ADME, Microsome. Conditions: read-out: Stability.
Data set [2] addresses T1, Histamine H4 receptor (Homo sapiens, UniProt Q9H3N8). In words: Antagonist activity at full length human H4R expressed in HEK293 cells assessed as reversal of forskolin-induced cAMP production by CRE-beta-lactamase reporter gene assay. The data set is classed as functional, cell-based.
Another data set has as its system Liver microsomes. In words: Metabolic stability in human liver microsomes assessed as reactive metabolite generation. The data set is classed as ADME, Microsome.
Data set [3] is described as follows: Metabolic stability in rat liver microsomes. Conditions: read-out: Stability. The data set is classed as ADME, Microsome.
For data set [4], the target named is T1, Histamine H4 receptor. As to the kind of experiment: Displacement of [3H]-histamine from full length human H4R expressed in HEK293 cells. The format is cell-based.
The test system of data set [5] is Rattus norvegicus. In words: Toxicity in rat assessed as mortality at high dose, po for 7 days. The data set is classed as organism-based. Conditions: in vivo, 168 h.
Data set [6] deals with Histamine H4 receptor (Rattus norvegicus) (UniProt Q91ZY1). As to the kind of experiment: Partial agonist activity at rat H4R expressed in HEK293T cells assessed as reversal of forskolin-induced cAMP production by CRE-beta-lactamase reporter gene assay. Conditions: HEK-293T. The format is functional, cell-based.
Data set [7] can be described thus: Ratio of drug level in blood to plasma in human. The data set is classed as ADME. Conditions: blood and plasma.
A short description of data set [8]: Lipophilicity, log D of the compound. The format is physicochemical. To be noted: octanol/water.
For data set [9], the target named is T1, Histamine H4 receptor. In words: Antagonist activity at H4R in human eosinophils assessed as inhibition of histamine-induced actin polymerisation. The format is functional.
In a further data set the test system is Plasma. As to the kind of experiment: Plasma protein binding in dog at 1 mg/kg, iv and 10 mg/kg, po. The format is ADME, organism-based, Canis lupus familiaris. To be noted: in vivo.
The nature of data set [10]: Plasma protein binding in rat at 1 mg/kg, iv and 5 mg/kg, po. The data set is classed as ADME, organism-based. Conditions: read-out: PPB (converted).
Data set [11] addresses T1, Histamine H4 receptor. As to the kind of experiment: Displacement of [3H]-histamine from human H4R expressed in HEK293T cells. The data set is classed as cell-based, HEK-293T.
Data set [12] is described as follows: Blood clearance in dog at 1 mg/kg, iv and 10 mg/kg, po. The data set is classed as ADME, organism-based, Canis lupus familiaris.
Data set [13] can be described thus: Displacement of [3H]-histamine from dog H4R expressed in HEK293T cells. The format is cell-based, Canis lupus familiaris. To be noted: hek-293t.
Data set [14] can be described thus: Half life in dog at 1 mg/kg, iv and 10 mg/kg, po. The format is ADME, organism-based, Canis lupus familiaris. To be noted: in vivo.
Data set [15] is described as follows: Oral bioavailability in dog at 10 mg/kg. The format is ADME, organism-based, Canis lupus familiaris. Conditions: in vivo.
Data set [16] in a line: Ratio of drug level in blood to plasma in dog at 1 mg/kg, iv and 10 mg/kg, po. The data set is classed as ADME, organism-based, Canis lupus familiaris.
The target in data set [17] is Histamine H4 receptor (Rattus norvegicus, UniProt Q91ZY1). In words: Displacement of [3H]-histamine from rat H4R expressed in HEK293T cells. The format is cell-based, HEK-293T.
Data set [18] concerns HEK-293T. As to the kind of experiment: Inverse agonist activity at macaque H4R expressed in HEK293T cells assessed as reversal of forskolin-induced cAMP production by CRE-beta-lactamase reporter gene assay. The format is functional, cell-based. Conditions: Macaca mulatta.
Data set [19] addresses T1, Histamine H4 receptor. As to the kind of experiment: Antagonist activity at H4R in human eosinophils assessed as inhibition of histamine-induced CD11b upregulation. The format is functional.
The nature of data set [20]: Volume of distribution in rat blood at 1 mg/kg, iv and 5 mg/kg, po. The data set is classed as ADME, organism-based.
Data set [21] has as its target T2, Histamine H4 receptor (Mus musculus, UniProt Q91ZY2).
T2 sequence (Q91ZY2 whole entry): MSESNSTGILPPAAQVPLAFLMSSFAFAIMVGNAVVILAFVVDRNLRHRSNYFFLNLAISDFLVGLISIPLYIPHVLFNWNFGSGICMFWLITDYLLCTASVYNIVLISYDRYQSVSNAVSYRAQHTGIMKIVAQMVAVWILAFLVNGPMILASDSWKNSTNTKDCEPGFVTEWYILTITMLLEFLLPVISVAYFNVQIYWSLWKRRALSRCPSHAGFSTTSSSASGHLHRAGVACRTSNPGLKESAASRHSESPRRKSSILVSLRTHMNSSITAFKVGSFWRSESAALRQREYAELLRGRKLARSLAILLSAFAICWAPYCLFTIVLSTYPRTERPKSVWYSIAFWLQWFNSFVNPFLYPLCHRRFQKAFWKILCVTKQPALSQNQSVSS
As to the kind of experiment: Displacement of [3H]-histamine from mouse H4R expressed in HEK293T cells. The data set is classed as cell-based, HEK-293T.

Data set [22] concerns HEK-293T. In words: Antagonist activity at dog H4R expressed in HEK293T cells assessed as reversal of forskolin-induced cAMP production by CRE-beta-lactamase reporter gene assay. To be noted: Canis lupus familiaris. The data set is classed as functional, cell-based.
A short description of data set [23]: Ratio of drug level in blood to plasma in rat at 1 mg/kg, iv and 5 mg/kg, po. The data set is classed as ADME, organism-based.
A short description of data set [24]: Plasma protein binding in human. The data set is classed as ADME, cell-free. Conditions: read-out: PPB (converted).
A short description of data set [25]: Volume of distribution in dog blood at 1 mg/kg, iv and 10 mg/kg, po. The data set is classed as ADME, organism-based, Canis lupus familiaris.
Data set [26] in a line: Oral bioavailability in rat at 5 mg/kg. The data set is classed as ADME, organism-based. Conditions: in vivo.
A short description of data set [27]: Blood clearance in rat at 1 mg/kg, iv and 5 mg/kg, po. The format is ADME, organism-based.
Data set [28] is described as follows: Displacement of [3H]-histamine from macaque H4R expressed in HEK293T cells. The format is cell-based, Macaca mulatta. To be noted: hek-293t.
Data set [29] in a line: Half life in rat at 1 mg/kg, iv and 5 mg/kg, po. The data set is classed as ADME, organism-based. To be noted: in vivo.
For data set [30], the target named is T3, Histamine H4 receptor (Cavia porcellus, UniProt Q91ZY3).
T3 sequence (Q91ZY3 whole entry): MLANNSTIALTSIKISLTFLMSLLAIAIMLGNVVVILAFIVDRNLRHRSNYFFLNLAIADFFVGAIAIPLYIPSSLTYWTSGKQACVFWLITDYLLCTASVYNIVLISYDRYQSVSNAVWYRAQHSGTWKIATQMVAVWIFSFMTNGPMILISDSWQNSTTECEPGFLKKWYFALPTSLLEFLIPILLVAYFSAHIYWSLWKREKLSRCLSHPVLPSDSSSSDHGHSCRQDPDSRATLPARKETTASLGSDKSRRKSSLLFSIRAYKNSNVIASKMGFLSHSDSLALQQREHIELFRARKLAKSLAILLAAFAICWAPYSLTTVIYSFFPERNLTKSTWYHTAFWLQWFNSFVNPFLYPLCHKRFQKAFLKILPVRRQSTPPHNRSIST
As to the kind of experiment: Displacement of [3H]-histamine from guinea pig H4R expressed in HEK293T cells. The data set is classed as cell-based, HEK-293T.

Data set [31] deals with Rattus norvegicus. In words: Induction of pro-inflammatory response in rat dosed orally for 4 days. The data set is classed as functional, organism-based.
Data set [32] deals with Rattus norvegicus. As to the kind of experiment: Toxicity in po dosed rat assessed as decrease in erythropoiesis for 4 days. Conditions: in vivo, 96 h. The format is organism-based, Erythrocyte.
A short description of data set [33]: Clearance in rat at 1 mg/kg, iv and 1 mg/kg, po. The format is ADME, organism-based. To be noted: in vivo.
The nature of data set [34]: Oral bioavailability in rat at 1 mg/kg. The data set is classed as ADME, organism-based. To be noted: in vivo.
The nature of data set [35]: Half life in rat at 1 mg/kg, iv and 1 mg/kg, po. The format is ADME, organism-based. Conditions: in vivo.
For data set [36], the system named is Rattus norvegicus. As to the kind of experiment: Toxicity in po dosed rat assessed as lymphoid depletion from thymus for 4 days. The format is organism-based. Conditions: in vivo, 96 h.
Data set [37] in a line: Volume of distribution in rat at 1 mg/kg, iv and 1 mg/kg, po. The format is ADME, organism-based. To be noted: in vivo.
The subject of data set [38] is Rattus norvegicus. In words: Toxicity in po dosed rat assessed as decrease in reticulocyte counts for 4 days. The data set is classed as organism-based. Conditions: in vivo, 96 h.
For data set [39], the system named is Rattus norvegicus. As to the kind of experiment: Toxicity in po dosed rat assessed as lymphoid depletion from gut for 4 days. The data set is classed as organism-based. To be noted: in vivo, 96 h.
Data set [40] has as its system Rattus norvegicus. As to the kind of experiment: Toxicity in po dosed rat assessed as lymphoid depletion from spleen for 4 days. The format is organism-based. Conditions: in vivo, 96 h.

Activity calls are given as the source filed them. The rule behind the calls is not given here. Some results are limits rather than exact numbers.

T1 sequence (Q9H3N8 whole entry): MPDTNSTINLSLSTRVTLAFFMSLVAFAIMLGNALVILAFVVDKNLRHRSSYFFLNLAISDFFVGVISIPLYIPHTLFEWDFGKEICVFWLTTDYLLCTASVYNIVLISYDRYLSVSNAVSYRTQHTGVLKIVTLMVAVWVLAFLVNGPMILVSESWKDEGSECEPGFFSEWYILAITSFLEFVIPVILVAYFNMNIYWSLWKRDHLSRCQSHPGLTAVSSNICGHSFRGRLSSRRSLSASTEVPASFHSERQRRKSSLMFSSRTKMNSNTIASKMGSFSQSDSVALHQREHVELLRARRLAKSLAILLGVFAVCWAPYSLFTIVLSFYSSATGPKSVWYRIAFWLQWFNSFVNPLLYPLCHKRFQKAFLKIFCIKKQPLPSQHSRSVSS
Chain of Histamine H4 receptor (Rattus norvegicus) (Q91ZY1 whole entry): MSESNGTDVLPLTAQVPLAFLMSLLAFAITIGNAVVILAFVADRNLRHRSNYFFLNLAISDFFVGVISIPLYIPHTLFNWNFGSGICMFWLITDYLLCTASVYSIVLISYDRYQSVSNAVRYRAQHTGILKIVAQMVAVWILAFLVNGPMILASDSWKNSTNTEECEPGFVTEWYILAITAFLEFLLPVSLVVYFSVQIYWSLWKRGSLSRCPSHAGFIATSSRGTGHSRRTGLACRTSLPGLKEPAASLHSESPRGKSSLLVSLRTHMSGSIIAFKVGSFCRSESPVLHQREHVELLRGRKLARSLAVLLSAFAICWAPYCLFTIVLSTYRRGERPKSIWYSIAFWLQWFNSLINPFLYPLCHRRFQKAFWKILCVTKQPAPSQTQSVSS
Chain of Histamine H4 receptor (Rattus norvegicus, UniProt Q91ZY1) (Q91ZY1 whole entry): as above

As for `CN1C[C@@H]2CN(C(=O)c3cc4cc(Cl)ccc4[nH]3)C[C@@H]2C1`, the microsomal CLint in data set [1] came out at 7 µL/min/mg; in data set [3], 36 µL/min/mg. For the same molecule, the inhibitory constant (Ki) on Histamine H4 receptor [2] is 0.027 µM. In the data set with Liver microsomes, the Stability entry was “Unstable”.

Take `CNC1CN(c2cc(N)nc(NCC3CC3)n2)C1`: the results for the Ki on Histamine H4 receptor [4] and at Histamine H4 receptor [2] were 9.07 µM and more than 2 µM, respectively. In addition, the Activity result with Rattus norvegicus [5] was “Toxic”. In addition, the microsomal CLint in [3] was less than 8.5 µL/min/mg.

`CN[C@@H]1CCN(c2cc(NCC3CC3)nc(N)n2)C1` [ADRIFORANT]: the outcome (in data set [6]; in the data set on HEK-293T [18]; in the data set with HEK-293T [22]) was Active. The blood plasma ratio in [7] was determined as 3; in data set [16], 1; in data set [23] it was 2. The molecule also had a log distribution coefficient (logD) in [8] of -0.1. The figures for the IC50 at Histamine H4 receptor [9] and at Histamine H4 receptor [19] were 0.0013 µM and 0.0049 µM, respectively. Also, in the data set on Plasma, the PPB worked out at 0%. Further, the figures for the fraction unbound in [10] and in data set [24] were 0.81 and 0.84, respectively. The Ki is 0.00617 µM on Histamine H4 receptor [11]; 0.0024 µM on Histamine H4 receptor [4]; 0.0123 µM at Histamine H4 receptor [17]; 0.00156 µM on Histamine H4 receptor [2]; 0.0209 µM at Histamine H4 receptor [21]; 0.123 µM on Histamine H4 receptor [30]. Moreover, the values for the clearance in data set [12] and in data set [27] were 7 mL/min/kg and 29 mL/min/kg, respectively. Moreover, the negative-log Ki (pKi) was found to be 5.79 in data set [13] and 7.81 in [28]. The half-life in data set [14] was 24 h; in data set [29], 7 h. Besides, the bioavailability in data set [15] amounted to 39%; in data set [26], 62%. Moreover, the microsomal CLint was less than 7 µL/min/mg in data set [1] and less than 8.5 µL/min/mg in data set [3]. Further, the Vd in data set [20] is 18 L/kg; in data set [25], 14 L/kg.

For the molecule `CN1CCN(c2cc(NCCC(C)(C)C)ncn2)CC1`, the inhibitory constant (Ki) on Histamine H4 receptor [2] worked out at 0.092 µM.

In the case of `CN1C[C@@H]2CN(C(=N)c3nc4cc(F)c(F)cc4[nH]3)C[C@@H]2C1`, the result in the data set with Rattus norvegicus [31] was Active. Further, the Activity entry in the data set with Rattus norvegicus [32] is given as “Toxic”; with Rattus norvegicus [36], “Dose-dependent effect”; in the data set with Rattus norvegicus [38], “Toxic”; with Rattus norvegicus [39] it was “Dose-dependent effect”; in the data set with Rattus norvegicus [40] it was “Dose-dependent effect”. This molecule had a clearance in data set [33] of 31 mL/min/kg. Further, the bioavailability in data set [34] was 20%. In [35], this molecule gave a half-life of 12 h. The results for the microsomal CLint in data set [1] and in [3] were less than 7 µL/min/mg and 10 µL/min/mg, respectively. Besides, the Ki on Histamine H4 receptor [4] and on Histamine H4 receptor [2] was 0.01 µM throughout. The molecule also had a Vd in data set [37] of 31 L/kg.

Take `CN1C[C@@H]2CN(C(=O)c3nc4cc(F)ccc4[nH]3)C[C@@H]2C1`: the microsomal CLint was less than 7 µL/min/mg in [1] and 40 µL/min/mg in data set [3]. The results for the inhibition constant Ki on Histamine H4 receptor [4] and on Histamine H4 receptor [2] were 0.083 µM and 0.039 µM, respectively. In addition, the Stability result in the data set with Liver microsomes is “Stable”.
